Experimental data: US10414811B2, “Protease-resistant lipidated GLP-1 analogs” (MEDIMMUNE LIMITED, priority 2015, dated 2019)
Like-named read-outs stand apart in the source and are kept apart here. Numbered stars: 1 amine (or outer) side, 2 acyl side, 3 side chain; on linkers, the order of the positions; unused ones are H or OH. Square brackets hold non-standard residues; d marks the D form. Side chains are listed from the residue outwards. Peptide text beside a SMILES is read from it. * marks the point of attachment. γGlu = O=C(O)[C@H](CCC(=O)[*:2])N[*:1]; αMeF = C[C@](N)(Cc1ccccc1)C(=O)O; αMeK = C[C@](N)(CCCCN)C(=O)O; Lauroyl = CCCCCCCCCCCC(=O)*; αMeS = C[C@](N)(CO)C(=O)O; AEEA = NCCOCCOCC(=O)O; Aib = CC(C)(N)C(=O)O

Legend:
Type in all cases: cell-based
[1] = molecular target: T1, human glucose-dependent insulinotropic peptide receptor (GIPR) (Homo sapiens, UniProt P48546); assay: cAMP assay, human GIPR cells; conditions: tris-lipidated peptides
T1 construct: expressed in transfected cells
T1 sequence (P48546 22-466): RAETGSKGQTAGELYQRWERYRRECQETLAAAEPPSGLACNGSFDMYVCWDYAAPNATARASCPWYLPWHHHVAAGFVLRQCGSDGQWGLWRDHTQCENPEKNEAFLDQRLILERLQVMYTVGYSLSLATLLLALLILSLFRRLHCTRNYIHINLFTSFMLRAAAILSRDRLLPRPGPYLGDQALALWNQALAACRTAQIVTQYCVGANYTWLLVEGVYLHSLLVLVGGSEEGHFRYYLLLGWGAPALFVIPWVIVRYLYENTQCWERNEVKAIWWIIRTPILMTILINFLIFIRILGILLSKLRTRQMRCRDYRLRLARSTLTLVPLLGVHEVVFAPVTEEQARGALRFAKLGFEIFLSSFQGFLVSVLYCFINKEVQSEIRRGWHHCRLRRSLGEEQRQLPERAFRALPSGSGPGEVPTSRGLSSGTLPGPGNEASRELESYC
In short: (§1)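 Peptide-stimulated cAMP measured by two-step HTRF after a 30 min room-temperature incubation with receptor-expressing cells (hGLP-1R, hGIPR at 1×10^5 cells/ml; hGCGR at 2×10^5 cells/ml). Duplicate dilutions; EC50 from 4-parameter logistic fit of % Delta F.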

[2] = molecular target: T2, human glucagon receptor (GCGR) (Homo sapiens, UniProt P47871); assay: cAMP assay, human GCGR cells; conditions: tris-lipidated peptides; second replicate; read-out: Primary assay EC50 Gluc-R (n2)
T2 construct: expressed in transfected cells
T2 sequence (P47871 26-477): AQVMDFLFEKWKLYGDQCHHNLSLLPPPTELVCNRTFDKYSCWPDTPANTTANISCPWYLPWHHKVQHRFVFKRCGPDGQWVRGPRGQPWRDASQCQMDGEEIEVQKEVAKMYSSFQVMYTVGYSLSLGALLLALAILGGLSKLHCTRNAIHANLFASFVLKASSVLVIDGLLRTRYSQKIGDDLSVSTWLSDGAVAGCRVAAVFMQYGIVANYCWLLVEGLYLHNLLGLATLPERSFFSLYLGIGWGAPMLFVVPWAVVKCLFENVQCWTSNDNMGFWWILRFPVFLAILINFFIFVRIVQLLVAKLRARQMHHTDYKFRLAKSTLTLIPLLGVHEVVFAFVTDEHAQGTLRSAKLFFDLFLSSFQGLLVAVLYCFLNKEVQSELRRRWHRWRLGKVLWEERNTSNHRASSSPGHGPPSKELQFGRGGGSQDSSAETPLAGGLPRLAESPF
In short: as §1

[3] = molecular target: T3, human GLP-1 receptor (GLP-1R) (Homo sapiens, UniProt P43220); assay: cAMP assay, human GLP-1R cells; conditions: tris-lipidated peptides
T3 construct: expressed in transfected cells
T3 sequence (P43220 24-463): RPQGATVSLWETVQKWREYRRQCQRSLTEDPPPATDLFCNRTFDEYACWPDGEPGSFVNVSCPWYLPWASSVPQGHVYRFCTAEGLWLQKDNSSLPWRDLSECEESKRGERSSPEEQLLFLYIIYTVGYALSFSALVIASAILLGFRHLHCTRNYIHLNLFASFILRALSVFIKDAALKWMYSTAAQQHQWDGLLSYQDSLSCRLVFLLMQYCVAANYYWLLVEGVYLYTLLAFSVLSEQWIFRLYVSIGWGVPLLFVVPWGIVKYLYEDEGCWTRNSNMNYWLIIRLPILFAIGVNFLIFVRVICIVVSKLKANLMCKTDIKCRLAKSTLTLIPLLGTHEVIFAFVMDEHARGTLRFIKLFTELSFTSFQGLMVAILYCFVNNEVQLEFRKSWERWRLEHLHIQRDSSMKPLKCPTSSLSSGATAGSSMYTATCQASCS
In short: as §1

[4] = molecular target: T4, GLP-1R (INS1e assay) (Rattus norvegicus, UniProt P32301); assay: INS1e assay, cAMP activity at GLP-1R; conditions: tris-lipidated peptides
T4 construct: endogenous in cells; host or cells: INS-1E cells
T4 sequence (P32301 22-463): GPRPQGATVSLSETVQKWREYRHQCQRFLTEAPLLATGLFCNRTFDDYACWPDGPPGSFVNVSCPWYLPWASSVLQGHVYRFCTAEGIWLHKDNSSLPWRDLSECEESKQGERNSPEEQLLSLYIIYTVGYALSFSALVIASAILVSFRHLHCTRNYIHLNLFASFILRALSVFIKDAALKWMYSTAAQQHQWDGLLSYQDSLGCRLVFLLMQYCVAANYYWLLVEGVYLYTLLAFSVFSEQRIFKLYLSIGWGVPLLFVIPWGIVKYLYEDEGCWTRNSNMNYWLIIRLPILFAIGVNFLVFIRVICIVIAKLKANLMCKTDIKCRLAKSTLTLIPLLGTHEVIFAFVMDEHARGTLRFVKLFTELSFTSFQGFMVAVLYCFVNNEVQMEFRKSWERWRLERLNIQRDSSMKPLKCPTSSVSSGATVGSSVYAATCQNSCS
In short: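 It pairs cAMP-d2 acceptor with anti-cAMP cryptate donor, both prepared 1/20 in conjugate/lysis buffer, applied as a two-step protocol.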

[5] = mean of n1 and n2, read-out: Primary assay EC50 Mean pM GLP-1R
[6] = replicate n1, read-out: Primary assay EC50 GLP-1R n1
[7] = replicate n2, read-out: Primary assay EC50 GLP-1R n2
[8] = mean of n1 and n2, read-out: INS1e assay EC50 Mean pM GLP-1R
[9] = replicate n1, read-out: INS1e assay EC50 GLP-1R n1
[10] = replicate n2, read-out: INS1e assay EC50 GLP-1R n2

CCCCCCCCCCCC(=O)N[C@@H](CCC(=O)NCCOCCOCC(=O)NCCOCCOCC(=O)NCCCC[C@H](NC(=O)[C@H](CO)NC(=O)[C@](C)(CO)NC(=O)[C@@H](NC(=O)[C@H](CC(=O)O)NC(=O)[C@H](CO)NC(=O)[C@@H](NC(=O)[C@](C)(Cc1ccccc1)NC(=O)[C@H](CO)NC(=O)CNC(=O)[C@H](CCC(=O)O)NC(=O)C(C)(C)NC(=O)[C@@H](N)Cc1c[nH]cn1)[C@@H](C)O)C(C)C)C(=O)N[C@@H](CC(C)C)C(=O)N[C@@H](CCC(=O)O)C(=O)NCC(=O)N[C@@H](CCC(=O)O)C(=O)N[C@@H](C)C(=O)N[C@@H](C)C(=O)N[C@@](C)(CCCCN)C(=O)N[C@@H](CCCCNC(=O)COCCOCCNC(=O)COCCOCCNC(=O)CC[C@H](NC(=O)CCCCCCCCCCC)C(=O)O)C(=O)N[C@@H](Cc1ccccc1)C(=O)N[C@H](C(=O)N[C@@H](CCCCNC(=O)COCCOCCNC(=O)COCCOCCNC(=O)CC[C@H](NC(=O)CCCCCCCCCCC)C(=O)O)C(=O)N[C@@H](Cc1ccccc1)C(=O)N[C@H](C(=O)N[C@H](C(=O)N[C@@H](CCC(=O)O)C(=O)NCC(=O)NCC(N)=O)C(C)C)C(C)C)[C@@H](C)CC)C(=O)O [compound 450] (H-H[Aib]EGS[αMeF]TSDV[αMeS]SK([AEEA-AEEA-γGlu-Lauroyl])LEGEAA[αMeK]K([AEEA-AEEA-γGlu-Lauroyl])FIK([AEEA-AEEA-γGlu-Lauroyl])FVVEGG-NH2; N-terminus assumed)
EC50 ([1]; second replicate, read-out: Primary assay EC50 GIP-R (n2)): 19.9 nM | EC50 [2]: 19.9 nM | EC50 [3, 5]: 49 pM | EC50 [3, 6]: 28 pM | EC50 [3, 7]: 70 pM | EC50 [4, 8]: 6810 pM | EC50 [4, 9]: 6380 pM | EC50 [4, 10]: 7240 pM

CCCCCCCCCCCC(=O)N[C@@H](CCC(=O)NCCOCCOCC(=O)NCCOCCOCC(=O)NCCCC[C@H](NC(=O)[C@H](Cc1ccc(O)cc1)NC(=O)[C@H](CO)NC(=O)[C@](C)(CO)NC(=O)[C@@H](NC(=O)[C@H](CC(=O)O)NC(=O)[C@H](CO)NC(=O)[C@@H](NC(=O)[C@](C)(Cc1ccccc1)NC(=O)[C@H](CO)NC(=O)CNC(=O)[C@H](CCC(=O)O)NC(=O)C(C)(C)NC(=O)[C@@H](N)Cc1c[nH]cn1)[C@@H](C)O)C(C)C)C(=O)N[C@@H](CCC(=O)O)C(=O)NCC(=O)N[C@@H](CCC(=O)O)C(=O)N[C@@H](C)C(=O)N[C@@H](C)C(=O)N[C@@](C)(CCCCN)C(=O)N[C@@H](CCCCNC(=O)COCCOCCNC(=O)COCCOCCNC(=O)CC[C@H](NC(=O)CCCCCCCCCCC)C(=O)O)C(=O)N[C@@H](Cc1ccccc1)C(=O)N[C@H](C(=O)N[C@@H](CCCCNC(=O)COCCOCCNC(=O)COCCOCCNC(=O)CC[C@H](NC(=O)CCCCCCCCCCC)C(=O)O)C(=O)N[C@@H](Cc1ccccc1)C(=O)N[C@H](C(=O)N[C@H](C(=O)N[C@@H](CCC(=O)O)C(=O)NCC(=O)NCC(N)=O)C(C)C)C(C)C)[C@@H](C)CC)C(=O)O [compound 454] (H-H[Aib]EGS[αMeF]TSDV[αMeS]SYK([AEEA-AEEA-γGlu-Lauroyl])EGEAA[αMeK]K([AEEA-AEEA-γGlu-Lauroyl])FIK([AEEA-AEEA-γGlu-Lauroyl])FVVEGG-NH2)
EC50 ([1]; first replicate, read-out: Primary assay EC50 GIP-R (n1)): 19.7 nM | EC50 [2]: 19.7 nM | EC50 [3, 5]: 43.7 pM | EC50 [3, 6]: 22.1 pM | EC50 [3, 7]: 65.2 pM | EC50 [4, 8]: 5550 pM | EC50 [4, 9]: 4100 pM | EC50 [4, 10]: 6990 pM
